In PMC11358582, “Discovery of a potential bladder cancer inhibitor CHNQD-01281 by regulating EGFR and promoting infiltration of cytotoxic T cells” (Marine Life Science & Technology, 2024):

Key:
Assay type in all cases: cell-based, human
HuH-7 cells = test: MTT cell proliferation assay
Experimental: (§1) Human tumor cell lines Eca-109, BEL-7402, BxPC-3, HCT-116, HT-29, T24, HCT-8, SGC-7901, DLD-1, TE-1, BT-549, MGC-803 and human hepatocyte cell line L-02 were cultured in Roswell Park Memorial Institute (RPMI) 1640. HuH-7 and SW-480 were cultured in Dulbecco’s modified Eagle’s medium (DMEM). J82, HepG2, Hela, U87 were cultured in Minimum Essential Medium (MEM). Murine bladder cancer cell line, MB49, was cultured in DMEM. The above-mentioned culture medium was provided by GIBCO (Grand Island, USA), contained 10% fetal bovine serum (PAN, Germany), 10 mg/mL of streptomycin, and 10 kU/mL penicillin (Beyotime, China).
(§2) Cells were seeded in 96-well plates and incubated with indicated concentrations of CHNQD-01281 for indicated periods. Next, medium was discarded and MTT (5 mg/mL) was added to each well. The cells were incubated at 37 °C for another 4 h. After that, supernatant was discarded, and DMSO was added and incubated at 37 °C for 15 min. Finally, absorbance was measured at 570 nm (Molecular Devices, USA).
(§3) To investigate whether CHNQD-01281 had selective inhibitory effect on cancer cell lines, a variety of human tumor cell lines were assayed by MTT, such as bladder cancer cell lines (J82 and T24), colorectal cancer cell lines (HCT-116, HT-29, HCT-8, DLD-1 and SW-480), cervical cancer cell line (Hela), esophageal cancer cell lines (TE-1 and Eca-109), breast cancer cell line (BT-549), gastric carcinoma cell lines (MGC-803 and SGC-7901), glioma cell line (U87), pancreatic carcinoma cell line (BxPC-3) and hepatocellular carcinoma cell lines (Hep G2, BEL-7402 and HuH-7) (Fig. 2A).

HCT-8 cells = test: MTT cell proliferation assay
Experimental: as §1, §2, §3

MGC-803 cells = test: MTT cell proliferation assay
Experimental: as §1, §2, §3

DLD-1 cells = test: MTT cell proliferation assay
Experimental: as §1, §2, §3

SW-480 cells = test: MTT cell proliferation assay
Experimental: as §1, §2, §3

SGC-7901 cells = test: MTT cell proliferation assay
Experimental: as §1, §2, §3

Eca-109 cells = test: MTT cell proliferation assay
Experimental: as §1, §2, §3

BEL-7402 cells = test: MTT cell proliferation assay
Experimental: as §1, §2, §3

Hela cells = test: MTT cell proliferation assay
Experimental: as §1, §2, §3

BxPC-3 cells = test: MTT cell proliferation assay
Experimental: as §1, §2, §3

U87 cells = test: MTT cell proliferation assay
Experimental: as §1, §2, §3

J82 cells = test: MTT cell proliferation assay
Experimental: as §1, §2, §3

Hep G2 cells = test: MTT cell proliferation assay
Experimental: as §1, §2, §3

HCT-116 cells = test: MTT cell proliferation assay
Experimental: as §1, §2, §3

BT-549 cells = test: MTT cell proliferation assay
Experimental: as §1, §2, §3

HT-29 cells = test: MTT cell proliferation assay
Experimental: as §1, §2, §3

EGFR = test: Western blot of EGFR expression in J82 cells; details: J82, 0.16 µmol/L, versus control
Experimental: T24 and J82 cell lines were lysed in protein lysis buffer, which included phosphatase inhibitors and a cocktail of protease inhibitors. A BCA kit (SparkJade, China) was used to determine the total protein concentration. After protein denaturation, SDS-PAGE electrophoresis was performed and the protein transferred from the gel to a PVDF membrane (Millipore, USA). Then primary antibodies against cleaved caspases-3, cleaved PARP, AKT, phosphorylated AKT, ERK1/2, phosphorylated ERK1/2, EGFR, mTOR, phosphorylated mTOR and Tubulin (CST, USA) were diluted at 1:1000 at 4 °C overnight. The membranes were then washed and incubated with secondary antibodies dissolved in 5% nonfat milk. A chemiluminescence imaging system was used to detect the signals (Tanon, China).
EGFR is overexpressed in malignant urothelial cells, which is associated with the deterioration, invasiveness and metastasis of tumors. It is a potential therapeutic target for bladder carcinoma. Therefore, we examined the expression of EGFR and its downstream proteins after treating bladder cancer cells with CHNQD-01281 (Supplementary Fig. S11). […] Taken together, CHNQD-01281 inhibited the proliferation of bladder cancer cells and induced apoptosis through EGFR/PI3K/AKT and EGFR/ERK pathways to exert antitumor effects.

C[C@H]1CCC/C=C/[C@@H]2C[C@H](O)C[C@H]2[C@H](OC(=O)/C=C/c2cccnc2)/C=C/C(=O)O1 [CHNQD-01281, Brefeldin A 4-O-3-(pyridin-3-yl) acrylate]
IC90 (HuH-7 cells; Homo sapiens, HuH-7, MTT): > 1 µM | IC50 (HuH-7 cells; Homo sapiens, HuH-7, MTT, 72 h): 0.51 µM | SI (selectivity index) (HuH-7 cells; L-02 versus HuH-7): 2.27 | IC90 (HCT-8 cells; Homo sapiens, HCT-8, MTT): 0.44 µM | IC50 (HCT-8 cells; Homo sapiens, HCT-8, MTT, 72 h): 0.17 µM | SI (selectivity index) (HCT-8 cells; L-02 versus HCT-8): 6.82 | IC90 (MGC-803 cells; Homo sapiens, MGC-803, MTT): > 1 µM | IC50 (MGC-803 cells; Homo sapiens, MGC-803, MTT, 72 h): 0.69 µM | SI (selectivity index) (MGC-803 cells; L-02 versus MGC-803): 1.68 | IC90 (DLD-1 cells; Homo sapiens, DLD-1, MTT): 0.64 µM | IC50 (DLD-1 cells; Homo sapiens, DLD-1, MTT, 72 h): 0.34 µM | SI (selectivity index) (DLD-1 cells; L-02 versus DLD-1): 3.41 | IC90 (SW-480 cells; Homo sapiens, SW480, SW-480, MTT): > 1 µM | IC50 (SW-480 cells; Homo sapiens, SW480, SW-480, MTT, 72 h): 0.73 µM | SI (selectivity index) (SW-480 cells; L-02 versus SW-480): 1.59 | IC90 (SGC-7901 cells; Homo sapiens, SGC-7901, MTT): 0.75 µM | IC50 (SGC-7901 cells; Homo sapiens, SGC-7901, MTT, 72 h): 0.34 µM | SI (selectivity index) (SGC-7901 cells; L-02 versus SGC-7901): 3.41 | IC90 (Eca-109 cells; Homo sapiens, Eca-109, MTT): > 1 µM | IC50 (Eca-109 cells; Homo sapiens, Eca-109, MTT, 72 h): 0.54 µM | SI (selectivity index) (Eca-109 cells; L-02 versus Eca-109): 2.15 | IC90 (BEL-7402 cells; Homo sapiens, BEL-7402, MTT): 0.82 µM | IC50 (BEL-7402 cells; Homo sapiens, BEL-7402, MTT, 72 h): 0.26 µM | SI (selectivity index) (BEL-7402 cells; L-02 versus BEL-7402): 4.46 | IC90 (Hela cells; Homo sapiens, Hela, MTT): 0.78 µM | IC50 (Hela cells; Homo sapiens, Hela, MTT, 72 h): 0.19 µM | SI (selectivity index) (Hela cells; L-02 versus Hela): 6.11 | IC90 (BxPC-3 cells; Homo sapiens, BxPC-3, MTT): 0.35 µM | IC50 (BxPC-3 cells; Homo sapiens, BxPC-3, MTT, 72 h): 0.18 µM | SI (selectivity index) (BxPC-3 cells; L-02 versus BxPC-3): 6.44 | IC90 (U87 cells; Homo sapiens, U-87 MG, U87, MTT): > 1 µM | IC50 (U87 cells; Homo sapiens, U-87 MG, U87, MTT, 72 h): 0.65 µM | SI (selectivity index) (U87 cells; L-02 versus U87): 1.78 | inhibition at 1 µM (J82 cells; Homo sapiens, J82, 1 µmol/L (highest concentration), 24 h): < 50% | IC90 (J82 cells; Homo sapiens, J82, MTT): 0.4 µM | IC50 (J82 cells; Homo sapiens, J82, MTT, 72 h): 0.081 µM | SI (selectivity index) (J82 cells; L-02 versus J82): 14.32 | IC90 (Hep G2 cells; Homo sapiens, HepG2, Hep G2, MTT): > 1 µM | IC50 (Hep G2 cells; Homo sapiens, HepG2, Hep G2, MTT, 72 h): 0.42 µM | SI (selectivity index) (Hep G2 cells; L-02 versus Hep G2): 2.76 | IC90 (HCT-116 cells; Homo sapiens, HCT-116, MTT): 0.64 µM | IC50 (HCT-116 cells; Homo sapiens, HCT-116, MTT, 72 h): 0.35 µM | SI (selectivity index) (HCT-116 cells; L-02 versus HCT-116): 3.31 | IC90 (BT-549 cells; Homo sapiens, BT-549, MTT): > 1 µM | IC50 (BT-549 cells; Homo sapiens, BT-549, MTT, 72 h): 0.64 µM | SI (selectivity index) (BT-549 cells; L-02 versus BT-549): 1.81 | IC90 (HT-29 cells; Homo sapiens, HT-29, MTT): > 1 µM | IC50 (HT-29 cells; Homo sapiens, HT-29, MTT, 72 h): 0.37 µM | SI (selectivity index) (HT-29 cells; L-02 versus HT-29): 3.14 | maximum down-regulation of EGFR expression (EGFR): 87.61%
